Holding throughout (assay type): in vivo
The test system of assay [1] is common mosquito (Culex pipiens pallens). Briefly: Test Example 1: emergence of common mosquito from last instar larvae. The note with it: 3.5 ppm in water; twenty last instar larvae; feeding up to emergence; two replications. As for the experimental part:
(§1) Anyone of Compound Nos. 1 to 12 (10 parts), polyoxyethylene styrylphenyl ether (14 parts), calcium dodecylbenzenesulfonate (6 parts), xylene (35 parts) and dimethylformamide (35 parts) are mixed well to make an emulsifiable concentrate preparation.
An emulsifiable concentrate preparation formulated as in Formulation Example 2 was diluted with water to make a dilution containing the test compound in a concentration of 3.5 ppm. The dilution (100 ml) was charged in a plastic cup of 180 ml volume, and twenty last instar larvae of common mosquito (Culex pipiens pallens) were released therein. Feeding was continued up to emergence, and the rate of emergence was observed (two replications).

The test system of assay [2] is tobacco cutworm (Spodoptera litura). The experiment in a line: Test Example 2: insecticidal test on tobacco cutworm fourth larvae, artificial diet. The note with it: 144 h. As to the method:
as §1
An emulsifiable concentrate preparation formulated as in Formulation Example 2 was diluted with water to make a designed dilution of the test compound. An artificial diet (13 g) for tobacco cutworm (Spodoptera litura) was impregnated with said dilution (2 ml) and placed into a polyethylene-made cup of 11 cm in diameter. Fourth larvae (10 insects) of tobacco cutworm were released therein. Six days thereafter, observation was made to determine the number of death, and the LC50 value (i.e. lethal concentration to 50% death) was calculated therefrom (two replications).

Assay [3] concerns rice stem borer (Chilo suppressalis). Briefly: Test Example 3: insecticidal test on rice stem borer ten-day old larvae, artificial diet. The note with it: 192 h, eight days, two replications. As for the experimental part:
as §1
An emulsifiable concentrate preparation formulated as in Formulation Example 2 was diluted with water to make a designed dilution of the test compound. Five grams of artificial diet placed into a polyethylene-made cup of 5.5 cm in diameter was impregnated with said dilution (1 ml). Ten-day old larvae (10 insects) of rice stem borer (Chilo suppressalis) were released therein. Eight days thereafter, observation was made to determine the number of death, and the LC50 value was calculated therefrom (two replications).

For assay [4], the system named is housefly (Musca domestica). Briefly: Test Example 4: emergence of housefly from nits reared on treated artificial culture. The note with it: 10 ppm dilution (10,000 fold, 28 ml) in artificial culture; fifty nits, cultivated until pupation. As for the experimental part: as §1
Powdered animal feed (2 g) was thoroughly mixed with bran (14 g). An emulsifiable concentrate preparation formulated as in Formulation Example 2 was diluted with water to make a 10,000 fold dilution (corresponding to 10 ppm; 28 ml) and added to the above mixture. The resultant mixture was stirred well to make an artificial culture for housefly. Fifty nits of housefly (Musca domestica) were cultivated therein until their pupation. The obtained pupae were placed into a plastic cup, and the rate of emergence was observed.

The mark [5] stands for this setting: lethal concentration to 50% death, fourth larvae, artificial diet, six days, two replications, read-out: LC50.

The structures appear in SMILES notation. Values after ≈ are worked out from the molar mass of the structure shown. Read-outs that look alike come from different tables or passages of the source.

As a reminder, the LC50 is the concentration that kills 50% of the test population.

`Cc1cc(NC(=O)NC(=O)c2ccccc2Cl)cc(C)c1Oc1cc(F)cc(F)c1` [Compound 4]: the Rate of emergence in assay [1] amounted to 0%. Also, the 50% lethal concentration (LC50) in assay [2] (setting [5]) is 1.5 µg/mL (≈ 3.48 µM); in assay [3], 10 µg/mL (≈ 23.2 µM).

In assay [2], `CNC(=O)ON=C(C)SC` [B, Methomyl, reference compound] registered an LC50 of 8 µg/mL (≈ 49.3 µM).

`O=C(NC(=O)c1ccccc1Cl)Nc1cc(Cl)c(Oc2cc(F)cc(F)c2)c(Cl)c1` [Compound 5] returned a Rate of emergence in assay [1] of 0%.

Take `O=C(NC(=O)c1c(F)cccc1F)Nc1cc(Cl)c(Oc2cc(F)cc(F)c2)c(Cl)c1` [Compound 2, N-2,6-difluorobenzoyl-N'-4-(3,5-difluorophenoxy)-3,5-dichlorophenylurea]: the Rate of emergence in assay [1] and in assay [4] was 0% throughout. Besides, the results for the 50% lethal concentration (LC50) in assay [2] (setting [5]) and in assay [3] were 2.5 µg/mL (≈ 5.28 µM) and 12 µg/mL (≈ 25.4 µM), respectively.

In turn, `O=C(NC(=O)c1c(F)cccc1F)Nc1cc(Cl)c(Oc2c(Cl)c(Cl)c(Cl)c(Cl)c2Cl)c(Cl)c1` [Compound 8] gave a Rate of emergence in assay [1] of 0%. Besides, the median lethal concentration (LC50) in assay [3] was found to be 15 µg/mL (≈ 24.6 µM).

Compound `O=C(NC(=O)c1c(F)cccc1F)Nc1ccc(Cl)cc1` [A, Diflubenzuron, reference compound] had a 50% lethal concentration (LC50) in assay [2] of 4.4 µg/mL (≈ 14.2 µM).

For `O=C(NC(=O)c1c(F)cccc1F)Nc1ccc(Oc2cc(Cl)cc(Cl)c2)cc1` [C, 3-(2,6-difluorobenzoyl)-1-[4-(3,5-dichlorophenoxy)phenyl]urea, reference compound], the LC50 in assay [2] (setting [5]) was 6.5 µg/mL (≈ 14.9 µM).

In turn, `Cc1cc(NC(=O)NC(=O)c2c(F)cccc2F)cc(C)c1Oc1c(F)c(F)c(F)c(F)c1F` [Compound 9] had a Rate of emergence in assay [1] of 0%. Also, the LC50 in assay [2] (setting [5]) amounted to 0.64 µg/mL (≈ 1.32 µM).

In assay [1], `Cc1cc(NC(=O)NC(=O)c2c(F)cccc2Cl)cc(C)c1Oc1c(F)c(F)c(F)c(F)c1F` [Compound 12] returned a Rate of emergence of 0%.

For the compound `O=C(NC(=O)c1ccccc1Cl)Nc1cc(Cl)c(Oc2c(Cl)c(Cl)c(Cl)c(Cl)c2Cl)c(Cl)c1` [Compound 7], the Rate of emergence in assay [1] was 0%.

In the case of `O=C(NC(=O)c1ccccc1Cl)Nc1cc(Cl)c(Oc2c(F)c(F)c(F)c(F)c2F)c(Cl)c1` [Compound 6], the Rate of emergence in assay [1] and in assay [4] was 0% each time. Also, in assay [2] (setting [5]), the median lethal concentration (LC50) is 2.7 µg/mL (≈ 5.14 µM).

For the compound `Cc1cc(NC(=O)NC(=O)c2ccccc2Cl)cc(C)c1Oc1c(F)c(F)c(F)c(F)c1F` [Compound 10], in assay [1], the Rate of emergence is 0%. Moreover, the LC50 in assay [2] (setting [5]) worked out at 1.2 µg/mL (≈ 2.48 µM).

Consider `Cc1cc(NC(=O)NC(=O)c2c(F)cccc2Cl)cc(C)c1Oc1cc(F)cc(F)c1` [Compound 11], for which the Rate of emergence in assay [1] is reported as 0%. For the same compound, the median lethal concentration (LC50) in assay [2] (setting [5]) stood at 1.6 µg/mL (≈ 3.56 µM).

Take `Cc1cc(NC(=O)NC(=O)c2c(F)cccc2F)cc(C)c1Oc1cc(F)cc(F)c1` [Compound 1, N-2,6-difluorobenzoyl-N'-4-(3,5-difluorophenoxy)-3,5-dimethylphenylurea]: the values for the Rate of emergence in assay [1] and in assay [4] were 0% and 2%, respectively. In addition, the LC50 in assay [2] (setting [5]) was found to be 0.5 µg/mL (≈ 1.16 µM).

Take `O=C(NC(=O)c1c(F)cccc1F)Nc1cc(Cl)c(Oc2c(F)c(F)c(F)c(F)c2F)c(Cl)c1` [Compound 3]: the Rate of emergence in assay [1] and in assay [4] was 0% throughout. The median lethal concentration (LC50) in assay [2] (setting [5]) amounted to 2.3 µg/mL (≈ 4.36 µM).

These data come from patent US4596890A, “Benzoylureas, and their production and use” (priority 1983, dated 1986).
